Results from paper PMC5733478, “A Non-imaging High Throughput Approach to Chemical Library Screening at the Unmodified Adenosine-A3 Receptor in Living Cells” (Frontiers in Pharmacology, 2017).
Structures can show the parent of a compound that is named as a salt.

target: T1, human A3AR (Homo sapiens, UniProt P0DMS8); test: LOPAC library primary screen: single concentration (10 μM) inhibition of 25 nM CA200645 binding, PHERAstar FS; conditions: not given
T1 construct: expressed in transfected cells
T1 sequence (P0DMS8 1-318): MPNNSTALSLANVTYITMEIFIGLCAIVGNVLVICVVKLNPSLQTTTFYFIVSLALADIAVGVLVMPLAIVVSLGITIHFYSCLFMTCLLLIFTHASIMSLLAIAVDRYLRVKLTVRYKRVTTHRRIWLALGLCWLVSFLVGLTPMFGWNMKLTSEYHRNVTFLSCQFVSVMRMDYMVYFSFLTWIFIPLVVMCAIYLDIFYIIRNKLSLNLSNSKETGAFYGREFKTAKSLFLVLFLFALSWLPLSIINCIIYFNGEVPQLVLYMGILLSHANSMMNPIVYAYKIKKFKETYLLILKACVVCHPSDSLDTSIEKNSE

In order of rising “% 25 nM CA200645 binding” value:
1. CC(C)=CCOc1c2occc2cc2ccc(=O)oc12 [Imperatorin]  47.6 ± 2.3%
2. O=C(Nc1nc2ccccc2n1CCN1CCOCC1)c1cccc([N+](=O)[O-])c1 [IRAK-1/4 Inhibitor I]  61.3 ± 9.4%
3. Oc1ccc2ccccc2c1SSc1c(O)ccc2ccccc12 [IPA-3]  63.1 ± 15.2%
4. S=c1[nH]c(-c2ccccc2)cn1-c1ccccc1 [KRM-III]  70.4 ± 12.2%
5. COc1ccc2c(c1)c(CC(=O)O)c(C)n2C(=O)c1ccc(Cl)cc1 [Indomethacin]  72.9 ± 18.3%
6. CC(C)C(=O)c1c(C(C)C)nn2ccccc12 [Ibudilast]  82.8 ± 12.0%
7. COC(=O)C1=C(C)NC(C)=C(C(=O)OC(C)(C)CN(C)CCC(c2ccccc2)c2ccccc2)C1c1cccc([N+](=O)[O-])c1.COC(=O)C1=C(C)NC(C)=C(C(=O)OC(C)(C)CN(C)CCC(c2ccccc2)c2ccccc2)C1c1cccc([N+](=O)[O-])c1.Cl.Cl.O (stereo not drawn) [Lercanidipine hydrochloride hemihydrate]  82.9 ± 16.7%
8. N[C@@H](CS(=O)O)C(=O)O [L-Cysteinesulfinic Acid]  83.6 ± 21.3%
9. COc1cc(SC)ccc1C(=O)N1CCC(Cc2ccccc2)CC1 [JX401]  84.6 ± 8.9%
10. O=C(/C=C/c1ccc(O)cc1)c1ccc(O)cc1O [Isoliquiritigenin]  88.0 ± 9.1%
11. O=C(O)C1CCNCC1 [Isonipecotic acid]  88.5 ± 19.5%
12. O=C(O)CCC(C(=O)O)N1C(=O)c2ccccc2C1=O [L-Glutamic acid, N-phthaloyl-]  89.4 ± 32.8%
13. C[C@](N)(Cc1ccc(O)c(O)c1)C(=O)O [L-alpha-Methyl DOPA]  92.6 ± 21.6%
14. Ic1ccccc1CNC1C2CCN(CC2)C1C(c1ccccc1)c1ccccc1.O=C(O)C(=O)O [L-703,606 oxalate salt hydrate]  93.3 ± 4.4%
15. Nc1nnc(-c2cccc(Cl)c2Cl)c(N)n1 [Lamotrigine]  93.6 ± 9.2%
16. NC(CO)(CO)CO.O=C(c1ccccc1)c1ccc2n1CCC2C(=O)O (stereo not drawn) [Ketorolac tris salt]  93.7 ± 13.0%
17. Cl.O=C(CCCCCN1CCN(c2ccccc2-c2ccccc2)CC1)NC1CCCc2ccccc21 (stereo not drawn) [LP 12 hydrochloride hydrate]  93.7 ± 9.5%
18. CN1CCC(=C2c3ccccc3CC(=O)c3sccc32)CC1 [Ketotifen fumarate]  93.8 ± 4.0%
19. Cl.O=c1cc(N2CCOCC2)oc2c(-c3ccccc3)cccc12 [LY-294,002 hydrochloride]  94.6 ± 11.0%
20. Nc1nc2[nH]c(=O)cnc2c(=O)[nH]1 [Isoxanthopterin]  94.7 ± 15.0%
21. CC(=O)[C@]1(O)Cc2c(O)c3c(c(O)c2[C@@H](O[C@H]2C[C@H](N)[C@H](O)[C@H](C)O2)C1)C(=O)c1ccccc1C3=O [Idarubicin]  95.1 ± 1.7%
22. CC(C(O)c1ccc(O)cc1)N1CCC(Cc2ccccc2)CC1.CC(C(O)c1ccc(O)cc1)N1CCC(Cc2ccccc2)CC1.O=C(O)C(O)C(O)C(=O)O (stereo not drawn) [Ifenprodil tartrate]  95.4 ± 10.6%
23. CCCCCN(C)CCC(O)(P(=O)([O-])O)P(=O)(O)O.[Na+] [Ibandronate sodium]  95.5 ± 10.4%
24. COc1ccc(/C=C2\COc3ccc(C)cc3C2=O)cc1O [IMS2186]  95.7 ± 10.2%
25. N[C@H](C(=O)O)[C@H](Cc1ccccc1)C(=O)O [L-Beta-threo-benzyl-aspartate]  95.9 ± 9.2%
26. CC(=N)NCCCC[C@H](N)C(=O)O.Cl [L-N6-(1-Iminoethyl)lysine hydrochloride]  96.4 ± 1.7%
27. C[C@@H](O)[C@H]1C(=O)N2C(C(=O)O)=C(SCCN=CN)C[C@H]12 [Imipenem monohydrate]  96.8 ± 2.2%
28. CCn1cc(C(=O)O)c(=O)c2cc(F)c(N3CCNC(C)C3)c(F)c21 (stereo not drawn) [Lomefloxacin hydrochloride]  96.9 ± 10.1%
29. N=C(N)NCCC[C@H](N)C(=O)O [L-Arginine]  97.1 ± 5.5%
30. Cl.Fc1ccc(CN(C2=NCCN2)c2c(Cl)cccc2Cl)cc1 [IMID-4F hydrochloride]  97.3 ± 5.7%
31. O=C1CCC(c2ccc(-n3ccnc3)cc2)=NN1 [Imazodan]  97.4 ± 12.7%
32. CC(CCc1ccccc1)NCC(O)c1ccc(O)c(C(N)=O)c1 (stereo not drawn) [Labetalol hydrochloride]  97.5 ± 13.9%
33. NC[C@H](O)c1ccc(O)c(O)c1.O=C(O)C(O)C(O)C(=O)O [L(-)-Norepinephrine bitartrate]  97.7 ± 6.2%
34. N[C@H]1CON=C1O [L-Cycloserine]  98.0 ± 1.4%
35. CCCCS(=N)(=O)CC[C@H](N)C(=O)O (stereo partly drawn) [L-Buthionine-sulfoximine]  98.1 ± 5.3%
36. C=CC[C@H](N)C(=O)O [L-allylglycine]  98.5 ± 1.7%
37. CC(=O)N1CCN(c2ccc(OCC3COC(Cn4ccnc4)(c4ccc(Cl)cc4Cl)O3)cc2)CC1 (stereo not drawn) [Ketoconazole]  98.9 ± 9.0%
38. N[C@@H](Cc1ccc(O)c(O)c1)C(=O)O [L-3,4-Dihydroxyphenylalanine]  99.1 ± 9.5%
39. CN(C)CCCN1c2ccccc2CCc2ccccc21 [Imipramine hydrochloride]  99.2 ± 4.6%
40. Cl.O=C(O)Cc1c[nH]cn1 [Imidazole-4-acetic acid hydrochloride]  99.3 ± 14.9%
41. N[C@@H](CC(=O)O)C(=O)O [L-Aspartic acid]  99.3 ± 3.7%
42. N=C(N)SCCc1cnc[nH]1 [Imetit dihydrobromide]  99.9 ± 2.2%
43. [Cl-].[Li+] [Lithium Chloride]  99.9 ± 5.2%
44. O=C(c1ccc(F)cc1)C1CCN(CCn2c(=O)[nH]c3ccccc3c2=O)CC1 [Ketanserin tartrate]  100.1 ± 15.2%
45. Cc1oncc1C(=O)Nc1ccc(C(F)(F)F)cc1 [Leflunomide]  100.1 ± 5.3%
46. Cc1c(OCC(F)(F)F)ccnc1C[S+]([O-])c1nc2ccccc2[nH]1 (stereo not drawn) [Lansoprazole]  100.3 ± 13.0%
47. Cl.N[C@@H](Cc1cnc[nH]1)C(=O)O [L-Histidine hydrochloride]  100.4 ± 6.4%
48. CC(=O)NC[C@H]1CN(c2ccc(N3CCOCC3)c(F)c2)C(=O)O1 [Linezolid]  100.5 ± 2.1%
49. O=C(O)[C@@H]1CCN1 [L-azetidine-2-carboxylic acid]  100.7 ± 4.1%
50. CC(C)NC(C)Cc1ccc(I)cc1 (stereo not drawn) [Iofetamine hydrochloride]  100.8 ± 7.1%
51. NC(N)=NOCC[C@H](N)C(=O)O [L-Canavanine]  101.1 ± 4.7%
52. N[C@@H](CCCC(=O)O)C(=O)O [L-2-aminoadipic acid]  101.5 ± 9.7%
53. NC(=O)CI [Iodoacetamide]  101.9 ± 8.2%
54. CCC(NC(C)C)C(O)c1ccc(O)c(O)c1.CS(=O)(=O)O (stereo not drawn) [Isotharine mesylate]  102.1 ± 6.6%
55. CC[C@@H](C(N)=O)N1CCCC1=O [Levetiracetam]  102.2 ± 9.6%
56. CN[C@@H]1C[C@@H](c2ccc(Cl)c(Cl)c2)c2ccccc21 [Indatraline hydrochloride]  103.0 ± 8.6%
57. CC(C)NNC(=O)c1ccncc1.O=P(O)(O)O [Iproniazid phosphate]  103.0 ± 5.6%
58. Cl.Clc1ccc(N2CCN(Cc3c[nH]c4ncccc34)CC2)cc1 [L-745,870 hydrochloride]  105.7 ± 4.1%
59. C=CCN1CC[C@]23CCCC[C@H]2[C@H]1Cc1ccc(O)cc13 [Levallorphan tartrate]  105.9 ± 7.3%
60. N[C@@H](Cn1ccc(=O)c(O)c1)C(=O)O [L-Mimosine from Koa hoale seeds]  106.5 ± 13.7%
61. CC(C)[N+]1(C)[C@@H]2CC[C@H]1C[C@@H](OC(=O)C(CO)c1ccccc1)C2 (stereo partly drawn) [Ipratropium bromide]  106.7 ± 26.2%
62. Cl.c1ccc(CN2CCC3(CCCc4ccccc43)CC2)cc1 [L-687,384 hydrochloride]  108.6 ± 4.6%
63. Cl.N[C@@H](CCC(=O)O)C(=O)O [L-Glutamic acid hydrochloride]  113.0 ± 19.3%

same assay, conditions: % of control wells (1% DMSO and 25 nM CA200645); compounds at 10 µM; […]; mean ± SD, three experiments in duplicate

With `O=C1Nc2ccccc2/C1=C1/Nc2ccccc2/C1=N\O` [Indirubin-3'-oxime] the “% 25 nM CA200645 binding” value was 50.6 ± 24.7%.

same assay, conditions: % of control wells (1% DMSO and 25 nM CA200645); compounds at 10 µM; whole live cells expressing the A3AR; mean ± SD, three experiments in duplicate

In order of falling “% 25 nM CA200645 binding” value:
1. N[C@@H](Cc1c[nH]c2ccccc12)C(=O)O [L-Tryptophan]  100.0 ± 3.7%
2. NC(=O)CC[C@H](N)C(=O)O [L-Glutamine]  99.9 ± 14.1%
3. CCn1ccnc1CC1COc2ccccc2O1 (stereo not drawn) [Imiloxan hydrochloride]  97.3 ± 10.2%
4. O=C1NC(c2cccc([N+](=O)[O-])c2)=CCN1c1ccccc1O [Icilin]  88.5 ± 5.8%
5. O=C(O)C1=CCNCC1 [Isoguvacine hydrochloride]  87.4 ± 16.5%
6. O=C(O)c1cc(=O)c2ccccc2[nH]1 [Kynurenic acid]  83.5 ± 10.7%

same assay, conditions: compounds tested at 10 µM; % of control wells (1% DMSO and 25 nM CA200645); whole live cells expressing the A3AR; mean ± SD, three experiments in duplicate

In order of falling “% 25 nM CA200645 binding” value:
1. c1ccc2c(c1)OCC(C1=NCCN1)O2 (stereo not drawn) [Idazoxan hydrochloride]  112.7 ± 7.0%
2. O=C1N(c2ccccc2)c2ccccc2C1(Cc1ccncc1)Cc1ccncc1 [Linopirdine]  105.3 ± 3.6%
